From patent US20160008777A1, “PHARMACEUTICAL COMPOUNDING KIT” (Novotec Consulting Inc., priority 2014, published 2016)
Where “and” joins values, the source holds several entries; their conditions need not be identical. Equal entries are not always repeated. Structures can show the parent of a compound that is named as a salt.

Test: Content uniformity of the Example 2 lotion: product from ten individual pumps weighed and assayed for content of each drug
Format: physicochemical
Details: for average amount contained in a gram of lotion product: per gram of lotion; for assay values, % of label claim / USP Acceptance Value (AV): ten pump samples; for USP Acceptance Value (AV): limit of 15
Description: The content uniformity of the lotion was determined by assaying product from ten individual pumps spaced equally over the content of the bottle. After the pump was primed, product from ten pumps was collected by taking product from approximately every tenth pump. The product from each pump was weighed and assayed for content of each drug.

[1] = Example 2 lotion, average ± standard deviation of ten pump samples
[2] = Example 2 lotion, average ± standard deviation of ten pump samples, label claim 20 mg/g
[3] = Example 2 lotion, individual pump samples No. 1-10, label claim 20 mg/g (2.0%), dihydrochloride
[4] = Example 2 lotion, individual pump samples No. 1-10, label claim 20 mg/g (2.0%)

Row | Molecule | average amount contained in lotion product, % w/w (Example 2 lotion) [% w/w] | Levocitirizine dihydrochloride Wt. (mg/g), Average [1] [mg/g] | Levocitirizine dihydrochloride % Label Claim, Average [2] [%] | Levocitirizine dihydrochloride % Label Claim [3] | Levocitirizine dihydrochloride Wt. [3] | average amount contained in a gram of lotion product (Example 2 lotion) [mg] | assay values, % of label claim (Example 2 lotion) | USP Acceptance Value (AV) (Example 2 lotion) | Mupirocin Wt. (mg/g), Average [1] [mg/g] | Mupirocin % Label Claim, Average [2] [%] | Mupirocin % Label Claim [4] | Mupirocin Wt. [4] | Cyanocobalamin Wt. (Example 2 lotion at maximum strength, individual pump samples No. 1-10, label claim 0.7 mg/g (0.07%)) | Cyanocobalamin Wt. (mg/g), Average [1] [mg/g] | Cyanocobalamin % Label Claim, Average (Example 2 lotion, average ± standard deviation of ten pump samples, label claim 0.7 mg/g) [%] | Cyanocobalamin % Label Claim (Example 2 lotion, individual pump samples No. 1-10, label claim 0.7 mg/g (0.07%))
1 | O=C(O)COCCN1CCN([C@H](c2ccccc2)c2ccc(Cl)cc2)CC1 [Levocitirizine dihydrochloride, levocetirizine dihydrochloride] | 1.97 | 19.76 ± 0.55 | 98.79 ± 2.77 | 97.15% and 96.00% and 102.10% and 103.90% and 99.90% and 101.10% and 96.80% and 95.80% and 96.75% and 97.75% | 19.43 mg/g and 19.32 mg/g and 20.42 mg/g and 20.78 mg/g and 19.98 mg/g and 20.22 mg/g and 19.36 mg/g and 19.16 mg/g and 19.35 mg/g and 19.55 mg/g | 19.76 | 90-110% | 6.66 | – | – | – | – | – | – | – | –
2 | C/C(=C\C(=O)OCCCCCCCCC(=O)O)C[C@@H]1OC[C@H](C[C@@H]2O[C@H]2[C@@H](C)[C@H](C)O)[C@@H](O)[C@H]1O [Mupirocin, mupirocin] | 1.93 | – | – | – | – | 19.32 | 90-110% | 6.44 | 19.32 ± 0.38 | 96.62 ± 1.90 | 99.60% and 96.00% (2×) and 96.10% and 95.85% and 98.55% and 95.70% and 92.90% and 98.45% and 97.00% | 19.92 mg/g and 19.20 mg/g (2×) and 19.22 mg/g and 19.17 mg/g and 19.71 mg/g and 19.14 mg/g and 18.58 mg/g and 19.69 mg/g and 19.40 mg/g | – | – | – | –
3 | cyanocobalamin | 0.07 | – | – | – | – | 0.697 | 90-110% | 4.45 | – | – | – | – | 0.723 mg/g and 0.711 mg/g and 0.694 mg/g and 0.696 mg/g (2×) and 0.682 mg/g (2×) and 0.701 mg/g and 0.684 mg/g and 0.699 mg/g | 0.697 ± 0.013 | 99.54 ± 1.86 | 103.29% and 101.57% and 99.14% and 99.43% (2×) and 97.43% (2×) and 100.14% and 97.71% and 99.86%
